Results on 44 molecules are retold here after ChEMBL document CHEMBL1129907, “The SAR of UK-78,282: A novel blocker of human T cell Kv1.3 potassium channels” (Bioorg Med Chem Lett, 1997).

A word on the IC50: it is the concentration needed to halve the response being measured.

One assay concerns T-cell line. Briefly: In vitro inhibition of Rb efflux in human T-cells; 1-10. It is filed as functional, cell-based.
As to `CCCCCCC[N+](CC)(CC)CCCCc1ccc(Cl)cc1` [CLOFILIUM], the IC50 is 1000 nM.

`CN(CCOc1ccc(NS(C)(=O)=O)cc1)CCc1ccc(NS(C)(=O)=O)cc1` [DOFETILIDE] yielded an IC50 of 1000 nM.

As to `COc1ccc(Cl)cc1C(=O)NCCc1ccc(S(=O)(=O)NC(=O)NC2CCCCC2)cc1` [GLYBURIDE], the concentration for half-maximal inhibition (IC50) amounted to 1000 nM.

`CC(C)NCC(O)c1ccc(NS(C)(=O)=O)cc1` (stereo not given) [SOTALOL] registered a half-maximal inhibitory concentration (IC50) of 1000 nM.

Consider `CC[N+](CC)(CC)CC` [TETRYLAMMONIUM], for which the concentration for half-maximal inhibition (IC50) was 1000 nM.

In a further assay the test system is T-cell line. Briefly: In vitro inhibitory potency against human T-cells Rb efflux. It is filed as functional, cell-based.
`COc1ccc(CCC[n+]2ccc(COC(c3ccccc3)c3ccccc3)cc2)cc1` returned an IC50 of more than 20000 nM.

Regarding `COc1ccc(CCCN2CCC(CNC(c3ccccc3)c3ccccc3)CC2)cc1`, the 50% inhibitory concentration (IC50) amounted to 2800 nM.

In the case of `COc1ccc(CCCN2CCC(COC(c3ccc(Br)cc3)c3ccc(Br)cc3)CC2)cc1`, the IC50 was 3200 nM.

Consider `COc1ccc(CCCN2C3CCC2CC(COC(c2ccccc2)c2ccccc2)C3)cc1` (stereo not given), for which the concentration for half-maximal inhibition (IC50) amounted to 400 nM.

With `CCN1CCC(COC(c2ccccc2)c2ccccc2)CC1`, the IC50 is more than 20000 nM.

Molecule `Clc1ccc(CCCN2CCC(COC(c3ccccc3)c3ccccc3)CC2)cc1Cl` had a half-maximal inhibitory concentration (IC50) of 2200 nM.

Molecule `c1ccc(C(OCC2CCN(CC3CCc4ccccc4C3)CC2)c2ccccc2)cc1` (stereo not given) displayed an IC50 of 5600 nM.

The molecule `CCCCCN1CCC(COC(c2ccccc2)c2ccccc2)CC1` displayed an IC50 of 10800 nM.

`COc1cccc(CCCN2CCC(COC(c3ccccc3)c3ccccc3)CC2)c1` had an IC50 of 1500 nM.

`COc1ccc(CCCN2CCC(CCC(c3ccccc3)c3ccccc3)CC2)cc1` came in with an IC50 of 200 nM.

Consider `COc1ccc(CCCN2CCC(C(O)CC(c3ccccc3)c3ccccc3)CC2)cc1` (stereo not given), for which half-maximal inhibition (IC50) required 1500 nM.

Consider `COc1ccc(CCCN2CCC(COCc3ccc(Cl)c(Cl)c3)CC2)cc1`, for which the IC50 was 200 nM.

In turn, `COc1ccc(CC2(CN3CCC(COC(c4ccccc4)c4ccccc4)CC3)CCCCC2)cc1` came in with an IC50 of 3400 nM.

As to `C(#Cc1ccccc1)CN1CCC(COC(c2ccccc2)c2ccccc2)CC1`, the IC50 was more than 20000 nM.

`CCCN1CCC(COC(c2ccccc2)c2ccccc2)CC1` displayed a half-maximal inhibitory concentration (IC50) of 17800 nM.

Turning to `COc1ccc(CCCN2CCC(=CCC(c3ccccc3)c3ccccc3)CC2)cc1`, the half-maximal inhibitory concentration (IC50) stood at 400 nM.

The molecule `COc1ccc(CCCN2CCC(COCc3ccccc3)CC2)cc1` registered an IC50 of 2100 nM.

In turn, `Clc1ccccc1CCCN1CCC(COC(c2ccccc2)c2ccccc2)CC1` gave an IC50 of 800 nM.

The molecule `COc1ccc(CCCN2CCC(COCc3ccccn3)CC2)cc1` yielded a half-maximal inhibitory concentration (IC50) of 5900 nM.

Regarding `c1ccc(CCCN2CCC(COC(c3ccccc3)c3ccccc3)CC2)cc1`, the IC50 came out at 700 nM.

`COc1ccc(CCN2CCC(COC(c3ccccc3)c3ccccc3)CC2)cc1` yielded a half-inhibitory concentration (IC50) of 2900 nM.

`COc1ccc(CCCN2CCC(COC(c3ccc(Cl)cc3)c3ccc(Cl)cc3)CC2)cc1` gave an IC50 of 1100 nM.

As for `CCCCCCCCCN1CCC(COC(c2ccccc2)c2ccccc2)CC1`, the concentration for half-maximal inhibition (IC50) was 700 nM.

`COc1ccc(CCCN2CCN(CCC(c3ccccc3)c3ccccc3)CC2)cc1` showed a half-inhibitory concentration (IC50) of 2700 nM.

`CN1CCC(COC(c2ccccc2)c2ccccc2)CC1`: the IC50 was more than 20000 nM.

In turn, `CCCCCCCCN1CCC(COC(c2ccccc2)c2ccccc2)CC1` registered a half-inhibitory concentration (IC50) of 700 nM.

The molecule `COc1ccc(/C=C/CN2CCC(COC(c3ccccc3)c3ccccc3)CC2)cc1` displayed an IC50 of 4300 nM.

Consider `COc1ccc(CCCN2CCC(CO)CC2)cc1`, for which the IC50 is more than 20000 nM.

`CCCCCCCCCCN1CCC(COC(c2ccccc2)c2ccccc2)CC1`: the IC50 worked out at 2600 nM.

Molecule `COc1ccc(CCCN2CCC(COCc3ccc(Cl)cc3)CC2)cc1` displayed an IC50 of 500 nM.

`Clc1ccc(CCCN2CCC(COC(c3ccccc3)c3ccccc3)CC2)cc1` came in with an IC50 of 500 nM.

Consider `COc1ccccc1CCCN1CCC(COC(c2ccccc2)c2ccccc2)CC1`, for which the 50% inhibitory concentration (IC50) stood at 2400 nM.

For the molecule `COc1ccc(CCCN2CCC(COC(c3ccccc3)c3ccccc3)CC2)cc1`, half-maximal inhibition (IC50) required 400 nM.

The molecule `CCCCN1CCC(COC(c2ccccc2)c2ccccc2)CC1` showed an IC50 of 14000 nM.

The molecule `Cc1ccc(CCCN2CCC(COC(c3ccccc3)c3ccccc3)CC2)cc1` yielded an IC50 of 200 nM.

Consider `COc1ccc(CCCN2CCC(COC(c3ccccc3)c3ccc(Cl)cc3)CC2)cc1` (stereo not given), for which the concentration for half-maximal inhibition (IC50) was found to be 200 nM.

`COc1ccc(CCCN2CCC(COCC3CCCCC3)CC2)cc1` had an IC50 of 3000 nM.

As to `CCCCCCCN1CCC(COC(c2ccccc2)c2ccccc2)CC1`, the IC50 came out at 500 nM.

The molecule `CCCCCCN1CCC(COC(c2ccccc2)c2ccccc2)CC1` yielded a 50% inhibitory concentration (IC50) of 5500 nM.

In another assay the target is Potassium voltage-gated channel subfamily A member 3 (Homo sapiens, UniProt P22001). Briefly: In vitro inhibition of human T-cells voltage-gated potassium channel subunit Kv1.3. It is filed as cell-based, T-cell.
Potassium voltage-gated channel subfamily A member 3, sequence (P22001 whole entry): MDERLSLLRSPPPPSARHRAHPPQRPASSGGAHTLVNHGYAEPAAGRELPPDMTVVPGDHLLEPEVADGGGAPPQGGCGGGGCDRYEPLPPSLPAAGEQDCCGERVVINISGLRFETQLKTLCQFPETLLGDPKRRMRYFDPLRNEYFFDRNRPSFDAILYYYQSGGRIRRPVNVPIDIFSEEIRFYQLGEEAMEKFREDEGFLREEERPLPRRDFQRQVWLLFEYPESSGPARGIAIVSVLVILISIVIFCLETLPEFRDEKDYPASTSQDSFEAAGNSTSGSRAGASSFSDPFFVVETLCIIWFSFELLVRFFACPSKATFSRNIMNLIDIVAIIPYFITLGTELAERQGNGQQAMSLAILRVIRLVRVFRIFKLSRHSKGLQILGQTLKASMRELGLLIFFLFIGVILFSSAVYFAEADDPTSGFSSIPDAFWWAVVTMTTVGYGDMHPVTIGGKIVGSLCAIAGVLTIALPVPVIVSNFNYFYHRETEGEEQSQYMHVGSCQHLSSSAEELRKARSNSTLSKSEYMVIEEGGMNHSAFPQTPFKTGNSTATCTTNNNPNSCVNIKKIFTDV
On to `COc1ccc(CCCN2CCC(COC(c3ccccc3)c3ccccc3)CC2)cc1`, for which the IC50 turned out to be 200 nM.
